The subject of experiment [1] is Caspases. As to the kind of experiment: Yeast-based Caspase-dependent lacZ reporter gene assays, 384 well format (summary over assays). The experiment is classed as cell-based, human. The method, then: We further validated the 384 well assay format, using zVAD-fmk, a peptidyl inhibitor with broad-spectrum activity against animal Caspases. For some experiments, a Calpain inhibitor was employed in side-by-side experiments as a control. The broad-spectrum Caspase inhibitor zVAD-fmk inhibited β-galactosidase activity in a dose-dependent fashion, with the concentration required for achieving 50% inhibition ranging from ∼1–10 µM in these assays, which were performed in 384 well format (Figure 5) (Table S1). […] These experiments verify that the 384 well version of the yeast-based Caspase-dependent reporter gene assay faithfully indicates the activity of an inhibitory compound, thus fulfilling one of the prerequisites for developing HTS assays.
Figure 5 Validation of yeast-based assay using pharmacological inhibitor of Caspases. (A) Caspase-1, single component assay. EGY48 yeast cells expressing S1 substrate (TEF-Fas-d-S1-TA) and high levels of Caspase-1 (TEF-HA-Caspase1-FLAG) were incubated for 3 days in selection media (SD/X-gal) with the indicated concentrations of z-VAD-fmk in DMSO (•) or DMSO only (○), using 384-well plates. […] For (A–C), relative absorbance at 620 nm was measured (mean ± std dev; n = 3−5 independent experiments). […]
(§1) For caspase assays, the assays were performed in a total volume of 40 µl in triplicate. […] Absorbance at 620 nm was measured 2–3 days after culture at 30°C.

The subject of experiment [2] is Caspase8 activated with FADD + Fas. The experiment is described as follows: Yeast cleavable-reporter β-galactosidase assay, Fas/FADD/Caspase-8 three-component system (384 well). The settings on record: for selectivity for Fas/FADD/Caspase-8 over Asc/Caspase-1 in yeast reporter assays: 384 well, various concentrations, 2–4 days at 30°C, OD620, counter-strains lacZ, Asc/Caspase-1, empty vector. Format: cell-based, human. Here is the method: (§2) Figure 5 Validation of yeast-based assay using pharmacological inhibitor of Caspases. (A) Caspase-1, single component assay. EGY48 yeast cells expressing S1 substrate (TEF-Fas-d-S1-TA) and high levels of Caspase-1 (TEF-HA-Caspase1-FLAG) were incubated for 3 days in selection media (SD/X-gal) with the indicated concentrations of z-VAD-fmk in DMSO (•) or DMSO only (○), using 384-well plates. (B) Asc/Caspase-1 two-component system. EGY48 yeast cells expressing S1 substrate (TEF-Fas-d-S1-TA) a low level of pro-Caspase-1 (ΔTEF1-Caspase1-FLAG) and high levels of Asc (TEF-HA-Asc) were incubated for 3 days in the selection media (SD/X-gal) in 384 well plates with the indicated concentrations of calpeptin (▴) or z-VAD-fmk (•) or an equivalent volume of DMSO (○). (C) Fas/FADD/Caspase8 three-component system. EGY48 yeast cells expressing S8 substrate (TEF-S8-TA), low levels of pro-Caspase-8 CYC1-Caspase-8-HA, with a small amount of FADD (from ΔADH1 promoter) and a large amount of Fas (from ADH promoter), were incubated in selection media (SD/X-gal) with the indicated concentrations of calpeptin (▴) or z-VAD-fmk (•), or equivalent volume of DMSO (○), in 384-well plates for 3–4 days. For (A–C), relative absorbance at 620 nm was measured (mean ± std dev; n = 3−5 independent experiments). (* indicates p<0.001).
Figure 6 HTS Implementation of yeast-based, 3-component Caspase assays. (A) Validation of HTS assay for NLRP1-Asc-Caspase-1 system. Yeast cells (18 µl, typically at ≈2×10^5 cells/well) containing NLRP1ΔLRR/Asc/Caspase-1 were plated into wells of 384 well plates in media containing 1% galactose, 0.2% raffinose. Wells also contained 18 µL selection media with (blue squares) or without (purple diamonds) X-gal substrate (400 µg/mL final Concentration) plus 10% DMSO (4 µl) (to simulate compound addition). The plates were incubated for 72 hrs at 30°C and the OD620 was recorded. Values (mean±std dev) were calculated for the assay maximum and minimum. The Z' factor was calculated as described. (B) Example of library screening plate for NLRP1-Asc-Caspase-1. Yeast cells (typically at ≈2×10^5 cells/well) containing NLRP1/Asc/Caspase-1 were plated in 384 well plates in Selection Media, without (purple triangles) or with (all other wells) 400 µg/ml X-gal (final concentration). Compounds in DMSO (∼10 µM final) had been pre-added to wells (diamonds). The plates were incubated for 72 hrs at 30°C and the OD620 was recorded, “Hits” were defined by >50% reduction (as shown in green diamonds). […] Yeast cells containing Fas/FADD/Caspase-8 were cultured in 384 well plates as above with (blue squares) or without (purple diamonds) X-gal substrate, the plates were incubated for 72 hrs at 30°C and analyzed as above. […] Plates were incubated for 48 hrs at 30°C and OD620 values recorded. […]
A general note: In a reporter assay the amount or activity of a reporter protein is the signal.

Experiment [3] concerns NLRP1/ASC/Caspase-1 proteolytic network. The experiment is described as follows: Yeast cleavable-reporter β-galactosidase assay, NLRP1/ASC/Caspase-1 three-component system (384 well). To be noted: 100 µM zVAD final, 2×10^5 cells/well, 48 hours, 400 µg/ml X-gal; Assay Max (DMSO) 0.78. The experiment is classed as cell-based, human. Here is the method: For the Fas/FADD/Caspase-8 and the NLRP1/Asc/Caspase-1 assays, EGY48 yeast containing the desired plasmids were streaked onto SD plates (6.8 g Yeast Nitrogen Base w/o amino acids, 20 mg arginine, 50 mg threonine, 30 mg isoleucine, 60 mg phenylalanine, 20 mg valine) containing agar (1.7%), supplemented with 2% α-D-glucose and 50 µg/mL leucine. The plates were incubated at 30°C for 48 hrs and a colony was picked and transferred to a 14 ml polypropylene tube containing 2 ml of SD media broth supplemented with α-D-glucose and leucine as above and grown at 30°C for 16–24 hrs with shaking. Then, 1 ml of the overnight culture was transferred into 20 mls of growth media in a 500 ml flask and shaken at 30°C for 16–24 hrs. […] After 48 hours, the plates were brought to room temperature, the breathable film removed and replaced with the transparent polyester tape seal, and the plates were mixed, pelleted briefly and read using a Beckman DTX 880, recording absorbance at 620 nm.
Supplementary file pone.0007655.s020.pdf: Figure S18 Determination of Z' scores for NLRP1(NALP1) and Fas(CD95) 3-component yeast-based HTS assays using caspase inhibitor zVAD-fmk. […] The Z' scores were determined by comparison of the DMSO-treated samples with the zVAD-treated samples. […]

The target of experiment [4] is T1, Caspase1 (Homo sapiens, UniProt P29466).
T1 construct: We expressed full-length Caspases-1, 2, 3, 4, 5, 6, 7, and 9 from high copy-number plasmids; HA (N); FLAG (C); expressed in transfected cells; host or cells: Saccharomyces cerevisiae EGY48
T1 sequence (P29466 120-297 limits assumed): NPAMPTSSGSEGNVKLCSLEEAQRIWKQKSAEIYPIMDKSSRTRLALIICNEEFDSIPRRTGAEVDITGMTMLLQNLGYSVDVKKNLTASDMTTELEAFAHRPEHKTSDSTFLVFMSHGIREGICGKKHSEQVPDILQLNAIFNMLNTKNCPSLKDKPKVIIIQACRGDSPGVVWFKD
T1 sequence (P29466 317-404 limits assumed): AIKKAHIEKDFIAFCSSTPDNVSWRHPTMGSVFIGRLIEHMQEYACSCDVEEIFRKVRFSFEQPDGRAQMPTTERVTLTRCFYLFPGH
The experiment is described as follows: Yeast cleavable-reporter β-galactosidase assay, Caspase-1 single component (384 well). The experiment is classed as cell-based. The settings on record: yeast expressing Caspase1 alone at high levels; 384 well β-galactosidase activity assay; read-out: IC50 for z-VAD inhibition of Caspases. Here is the method:
as §2, with “EGY48 yeast cells expressing S8 substrate (TEF-S8-TA), low levels of pro-Caspase-8 CYC1-Caspase-8-HA, with a small amount of FADD (from ΔADH1 promoter) and a large amount of Fas (from ADH promoter), were incubated in selection media (SD/X-gal) with the indicated concentrations of calpeptin (▴) or z-VAD-fmk (•), or equivalent volume of DMSO (○), in 384-well plates for 3–4 days.” left out, “(* indicates p<0.001).” left out
as §1
(§3) Supplementary file pone.0007655.s002.pdf: Table S1 Determination of IC50 values for zVAD-fmk inhibition of Caspases in yeast. […] The compound was titrated into assays at various concentrations and percentage inhibition was determined. IC50 values were determined, using PRIZM software for analysis. […]

The target of experiment [5] is Caspase10 activated with FADD. As to the kind of experiment: Yeast cleavable-reporter β-galactosidase assay, FADD/Caspase-10 (384 well). Format: cell-based, human. The settings on record: 384 well β-galactosidase activity assay, read-out: IC50 for z-VAD inhibition of Caspases. The method, then:
(§4) For caspase assays, the assays were performed in a total volume of 40 µl in triplicate. First, 20 µl of liquid selection media containing X-gal and a series of concentrations of reagents such as z-VAD was dispensed into each well of 384-well plates. Next, confluent yeast cells expressing various Caspases and cleavable substrates were collected, washed with water, and suspended in selection media of the same volume as the culture media. The yeast suspension was diluted to 1∶5-10 (v:v) with the selection media, and 20 µl aliquots were added to the 384-well plates. For ATG4B assays, yeast cells expressing ATG4B and LC3 fused-transcription factor were cultured overnight in standard growth medium, then the yeast cells were diluted in selection medium (SD medium containing 1% galactose, 0.2% raffinose, BU salts, and 100 µg/ml X-gal) at 10^4/ml and dispensed 100 µl into each well of 384-well plates. Absorbance at 620 nm was measured 2–3 days after culture at 30°C.
as §3

Experiment [6] concerns the target Caspase9 activated with Apaf*. As to the kind of experiment: Yeast cleavable-reporter β-galactosidase assay, Apaf*/Caspase-9 (384 well). Format: cell-based, human. The settings on record: 384 well β-galactosidase activity assay, read-out: IC50 for z-VAD inhibition of Caspases. Here is the method:
as §4, §3

Experiment [7] concerns the target Caspase1 activated with Asc. As to the kind of experiment: Yeast cleavable-reporter β-galactosidase assay, Asc/Caspase-1 two-component system (384 well). Format: cell-based, human. The settings on record: 384 well β-galactosidase activity assay, read-out: IC50 for z-VAD inhibition of Caspases. The method, then: as §2, with “EGY48 yeast cells expressing S8 substrate (TEF-S8-TA), low levels of pro-Caspase-8 CYC1-Caspase-8-HA, with a small amount of FADD (from ΔADH1 promoter) and a large amount of Fas (from ADH promoter), were incubated in selection media (SD/X-gal) with the indicated concentrations of calpeptin (▴) or z-VAD-fmk (•), or equivalent volume of DMSO (○), in 384-well plates for 3–4 days.” left out, “(* indicates p<0.001).” left out
For caspase assays, the assays were performed in a total volume of 40 µl in triplicate. […] Absorbance at 620 nm was measured 2–3 days after culture at 30°C. […]
as §3

In experiment [8] the target is T2, Caspase6 (Homo sapiens, UniProt P55212).
T2 construct: We expressed full-length Caspases-1, 2, 3, 4, 5, 6, 7, and 9 from high copy-number plasmids; HA (N); expressed in transfected cells; host or cells: Saccharomyces cerevisiae (EGY48)
T2 sequence (P55212 24-179 limits assumed): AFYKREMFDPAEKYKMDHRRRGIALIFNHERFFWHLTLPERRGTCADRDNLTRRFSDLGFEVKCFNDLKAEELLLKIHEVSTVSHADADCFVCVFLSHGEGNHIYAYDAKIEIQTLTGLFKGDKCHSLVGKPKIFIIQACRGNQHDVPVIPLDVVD
T2 sequence (P55212 194-293 limits assumed): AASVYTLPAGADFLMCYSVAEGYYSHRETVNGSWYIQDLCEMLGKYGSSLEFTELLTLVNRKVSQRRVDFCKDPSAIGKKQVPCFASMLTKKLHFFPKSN
The experiment is described as follows: Yeast cleavable-reporter β-galactosidase assay, Caspase-6 (384 well). The experiment is classed as cell-based. The settings on record: yeast expressing Caspase6; 384 well β-galactosidase activity assay; read-out: IC50 for z-VAD inhibition of Caspases. Here is the method: as §4, §3

Residues, ends and D or L forms follow the SMILES beside them. *: point of attachment. Cbz = O=C(OCc1ccccc1)*; CH2F = FC*

With `CCCC[C@@H](C=O)NC(=O)[C@H](CC(C)C)NC(=O)OCc1ccccc1` [Calpain inhibitor, calpeptin], the “suppression of activation of the lacZ reporter gene” value in experiment [1] (control compound side-by-side with zVAD-fmk) is listed as “did not suppress activation of the lacZ reporter gene”.
Turning to `C[n+]1cc2c3c(ccc2c2ccc4cc5c(cc4c21)OCO5)OCO3` [CID-5154], in experiment [2], the “selectivity for Fas/FADD/Caspase-8 over Asc/Caspase-1 in yeast reporter assays” value is given as “selective inhibition of Fas-FADD-Caspase-8”.
In the case of `c1ccc2c(c1)[I+]c1ccccc1-2` [CID-3101], the “selectivity for Fas/FADD/Caspase-8 over Asc/Caspase-1 in yeast reporter assays” value in experiment [2] was “selective inhibition of Fas-FADD-Caspase-8”.
For `COC(=O)C[C@H](NC(=O)[C@H](C)NC(=O)[C@@H](NC(=O)OCc1ccccc1)C(C)C)C(=O)CF` [zVAD-fmk] (Cbz-Val-Ala-Asp(OMe)-CH2F), the IC50 in experiment [1] (range over the yeast Caspase assays, dose-dependent, read-out: concentration required for achieving 50% inhibition of β-galactosidase activity) is 1 to 10 µM; in experiment [4], 3.07 µM; in experiment [2] (yeast, Caspase8 activated with FADD + Fas, 384 well β-galactosidase activity assay, read-out: IC50 for z-VAD inhibition of Caspases), 5.42 µM; in experiment [5] it was 9.52 µM; in experiment [6], 10.7 µM; in experiment [7], 1 µM. Further, the IC50 in experiment [8] amounted to 6.78 µM. The “Assay Min (zVAD), absorbance OD620” value in experiment [3] was 0.19; in experiment [2] (100 µM zVAD final, 2×10^5 cells/well, 48 hours, 400 µg/ml X-gal, Assay Max (DMSO) 0.56) it was 0.20.

The values above are taken from paper PMC2764853, “Versatile Assays for High Throughput Screening for Activators or Inhibitors of Intracellular Proteases and Their Cellular Regulators” (PLoS ONE, 2009).
